From the supplement of paper PMC11997997

How the values were obtained:
[1] = system: Mycobacterium tuberculosis CDC1551 (intracellular, in murine BMDM); test: area under intracellular growth-inhibition dose-response curve (AUC (% inhibition x dose, relative)); higher = more potent; settings: duration: 6 days; dose range: 0.13-80 uM, 8 points
How it was run: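 In 384-well opaque plates, primary murine bone marrow-derived macrophages were infected with luciferase-expressing M. tuberculosis CDC1551 (multiplicity of infection 1, 1 h) 24 h after seeding, then treated for 6 days across final concentrations of 80–0.13 μM. Growth was measured by Bright-Glo luciferin assay, normalised to a reference drug control and the lowest-concentration wells. The reported value is the area under the growth-inhibition dose–response curve from GraphPad Prism.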

[2] = system: murine bone marrow-derived macrophages; test: area under cytotoxicity dose-response curve (AUC (% cytotoxicity x dose, relative)); higher = more cytotoxic; settings: duration: 6 days; dose range: 0.13-80 uM, 8 points
How it was run: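 Cytotoxicity is expressed as the area under the dose–response curve from GraphPad Prism version 10. To obtain it, primary murine bone marrow-derived macrophages were incubated for 6 days at 37 °C in 5% CO2 across final concentrations of 80–0.13 μM. Viability came from CellTiter-Glo luminescence, and percent cytotoxicity was normalised to vehicle and positive control wells.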

SMILES: Cl.c1ccc(-c2nnc(CN3CCCCC3)o2)cc1
- area under intracellular growth-inhibition dose-response curve [1]: 267
- area under cytotoxicity dose-response curve [2]: 36

SMILES: CCCCNC(=O)Cc1ccc(C)cc1
- area under intracellular growth-inhibition dose-response curve [1]: 115
- area under cytotoxicity dose-response curve [2]: 80.9

SMILES: CCCC(=O)NC(=S)Nc1ccc(N2CCN(C(=O)c3cccs3)CC2)cc1
- area under intracellular growth-inhibition dose-response curve [1]: 274
- area under cytotoxicity dose-response curve [2]: < 0

SMILES: Cc1ccc(S(=O)(=O)[O-])cc1.c1cnc2c(c1)ccc1ccc[nH+]c12
- area under intracellular growth-inhibition dose-response curve [1]: 94
- area under cytotoxicity dose-response curve [2]: 114

SMILES: O=C(Nc1ccc(F)cc1)NC1CCCCCCC1
- area under intracellular growth-inhibition dose-response curve [1]: 182
- area under cytotoxicity dose-response curve [2]: 144

SMILES: Cc1ccc(NC(=O)c2cc(S(=O)(=O)N3CCCCC3)ccc2N2CCOCC2)cc1S(=O)(=O)N(C)C
- area under intracellular growth-inhibition dose-response curve [1]: < 0
- area under cytotoxicity dose-response curve [2]: 58.9

SMILES: COCC(=O)Nc1nnc(Cc2ccc(OC)cc2)s1
- area under intracellular growth-inhibition dose-response curve [1]: 159
- area under cytotoxicity dose-response curve [2]: 21.6

SMILES: Cn1c(NC(=S)Nc2ccccc2)nc2ccccc21
- area under intracellular growth-inhibition dose-response curve [1]: 206
- area under cytotoxicity dose-response curve [2]: 55.9

SMILES: O=C(N/N=C/c1cccn1-c1ccccc1)c1ccncc1
- area under intracellular growth-inhibition dose-response curve [1]: 251
- area under cytotoxicity dose-response curve [2]: 57.4

SMILES: CC(C)Oc1ccc(C(=O)NC(=S)Nc2ccc(CN3CCOCC3)cc2)cc1
- area under intracellular growth-inhibition dose-response curve [1]: 136
- area under cytotoxicity dose-response curve [2]: 2.7

SMILES: CC(=O)NC(=S)Nc1ccc(NC(=O)c2cccnc2Cl)cc1
- area under intracellular growth-inhibition dose-response curve [1]: 262
- area under cytotoxicity dose-response curve [2]: < 0

SMILES: Cc1ccc(-c2cc(-c3ccc(C)cc3)[n+](-c3ccccc3)c(-c3ccc(C)cc3)c2)cc1.[O-][Cl+3]([O-])([O-])[O-]
- area under intracellular growth-inhibition dose-response curve [1]: 268
- area under cytotoxicity dose-response curve [2]: 85.5

SMILES: CN(C(=O)CSc1ncnc2sc3c(c12)CCC3)C1CCS(=O)(=O)C1 (stereo not given)
- area under intracellular growth-inhibition dose-response curve [1]: 60.2
- area under cytotoxicity dose-response curve [2]: 4.88

SMILES: C/C(=N/NC(=O)c1ccncc1)c1ccccc1
- area under intracellular growth-inhibition dose-response curve [1]: 243
- area under cytotoxicity dose-response curve [2]: < 0

SMILES: CCN(CC)S(=O)(=O)c1ccc2c(c1)c(=O)c(C(=O)NCCc1ccccc1)cn2C
- area under intracellular growth-inhibition dose-response curve [1]: 157
- area under cytotoxicity dose-response curve [2]: 22.5

SMILES: CC1CCC/C(=N\NC(=O)c2ccncc2)C1 (stereo not given)
- area under intracellular growth-inhibition dose-response curve [1]: 186
- area under cytotoxicity dose-response curve [2]: 70.8

SMILES: Clc1ccc(-c2nnc(C3CCCCC3)o2)cc1
- area under intracellular growth-inhibition dose-response curve [1]: 212
- area under cytotoxicity dose-response curve [2]: < 0

SMILES: C[C@H]1c2cccc(O)c2C(=O)C2C(=O)C3(O)C(=O)C(C(N)=O)C(=O)[C@@H](N(C)C)[C@@H]3[C@@H](O)[C@@H]21.Cl (stereo not given in full)
- area under intracellular growth-inhibition dose-response curve [1]: 259
- area under cytotoxicity dose-response curve [2]: 33.4

SMILES: Cc1ccc(C(=O)N2CCN(c3ccc(NC(=S)NC(=O)c4cccs4)cc3)CC2)cc1
- area under intracellular growth-inhibition dose-response curve [1]: 275
- area under cytotoxicity dose-response curve [2]: < 0

SMILES: Clc1cnc(N/N=C/c2ccco2)c(Cl)c1
- area under intracellular growth-inhibition dose-response curve [1]: 189
- area under cytotoxicity dose-response curve [2]: 93.8

SMILES: NC(=S)N/N=C/c1ccc(C(F)(F)F)cc1
- area under intracellular growth-inhibition dose-response curve [1]: 260
- area under cytotoxicity dose-response curve [2]: 19.4

SMILES: Cc1c(C)c2cccnc2c2ncccc12
- area under intracellular growth-inhibition dose-response curve [1]: 162
- area under cytotoxicity dose-response curve [2]: 36.7

SMILES: Cc1cc(OCC(=O)N2CCCC2)cc(C)c1Cl
- area under intracellular growth-inhibition dose-response curve [1]: 254
- area under cytotoxicity dose-response curve [2]: < 0

SMILES: COc1ccc(C2=NOC(CNC(N)=S)C2)cc1 (stereo not given)
- area under intracellular growth-inhibition dose-response curve [1]: 92.8
- area under cytotoxicity dose-response curve [2]: 7.88

SMILES: Cc1ccc(Cn2cc(-c3ccccc3)nn2)cc1
- area under intracellular growth-inhibition dose-response curve [1]: 191
- area under cytotoxicity dose-response curve [2]: 11.2

SMILES: O=C(N/N=C/C=C/c1ccccc1)c1ccncc1
- area under intracellular growth-inhibition dose-response curve [1]: 266
- area under cytotoxicity dose-response curve [2]: < 0

SMILES: NC(=S)N/N=C1\CCOc2ccc(F)cc21
- area under intracellular growth-inhibition dose-response curve [1]: 232
- area under cytotoxicity dose-response curve [2]: < 0

SMILES: CNC[C@H](CC1CCCCC1)NC[C@H](Cc1ccccc1)NCCC12CC3CC(CC(C3)C1)C2
- area under intracellular growth-inhibition dose-response curve [1]: 104
- area under cytotoxicity dose-response curve [2]: 43

SMILES: CC(C)Oc1cccc(C(=O)N2CCCC2)c1
- area under intracellular growth-inhibition dose-response curve [1]: 43.1
- area under cytotoxicity dose-response curve [2]: 54.6

SMILES: Cc1nn2c(O)cc(-c3ccc([N+](=O)[O-])cc3)nc2c1-c1ccccc1
- area under intracellular growth-inhibition dose-response curve [1]: 128
- area under cytotoxicity dose-response curve [2]: 99.5
